Measurements taken from PubChem BioAssay (NCI).
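Cells were grown in 96-well plates and exposed to each compound for 48 hours at five concentrations; endpoints were interpolated linearly between bracketing concentrations, or set to the highest concentration if not reached. TGI denotes the concentration required for complete inhibition of growth.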

What was measured:
Assay in all cases: growth of human tumour cells (NCI), 48 h
COLO 205 colon = system: COLO 205 colon
DU-145 prostate = system: DU-145 prostate
HCT-15 colon = system: HCT-15 colon
HOP-62 NSCLC = system: HOP-62 NSCLC
HS 578T breast = system: HS 578T breast
IGROV1 ovarian = system: IGROV1 ovarian
MDA-MB-231 breast = system: MDA-MB-231 breast
MDA-MB-435 = system: MDA-MB-435
MDA-N = system: MDA-N
NCI-H23 lung = system: NCI-H23 lung
OVCAR-3 ovarian = system: OVCAR-3 ovarian
SF-268 CNS = system: SF-268 CNS
SF-539 CNS = system: SF-539 CNS
SK-MEL-2 melanoma = system: SK-MEL-2 melanoma
UACC-62 melanoma = system: UACC-62 melanoma
OVCAR-4 ovarian = system: OVCAR-4 ovarian
U251 CNS = system: U251 CNS
OVCAR-5 ovarian = system: OVCAR-5 ovarian
SR leukemia = system: SR leukemia
T-47D breast = system: T-47D breast

Row | Compound | TGI (COLO 205 colon) [µM] | TGI (DU-145 prostate) [µM] | TGI (HCT-15 colon) [µM] | TGI (HOP-62 NSCLC) [µM] | TGI (HS 578T breast) [µM] | TGI (IGROV1 ovarian) [µM] | TGI (MDA-MB-231 breast) [µM] | TGI (MDA-MB-435) [µM] | TGI (MDA-N) [µM] | TGI (NCI-H23 lung) [µM] | TGI (OVCAR-3 ovarian) [µM] | TGI (SF-268 CNS) [µM] | TGI (SF-539 CNS) [µM] | TGI (SK-MEL-2 melanoma) [µM] | TGI (UACC-62 melanoma) [µM] | TGI (OVCAR-4 ovarian) [µM] | TGI (U251 CNS) [µM] | TGI (OVCAR-5 ovarian) [µM] | TGI (SR leukemia) [µM] | TGI (T-47D breast) [µM]
1 | O=P1(c2ccccc2)c2ccccc2CCc2ccccc21 | > 100 | > 100 | > 100 | > 100 | > 100 | > 100 | > 100 | > 100 | > 100 | > 100 | > 100 | > 100 | > 100 | > 100 | > 100 |  |  |  |  | 
2 | CCCc1c[nH]c(-c2ccc(-c3cc(CCC)c(C=O)[nH]3)s2)c1 |  |  | 29.6 |  |  | 45.5 |  |  |  | 42.4 | 30.8 | 34.6 | 32.8 | 28.5 | 31.2 | 35.2 | 29.2 |  |  | 
3 | CC(=O)C1=C(C)Cn2c(=O)c3ccccc3c(=O)n2C1 | > 100 |  | > 100 | > 100 |  | > 100 |  |  |  | > 100 | > 100 | > 100 | > 100 | > 100 |  | > 100 | > 100 | > 100 | > 100 | 
4 | Cc1cccc(/C=C2\CCCc3ccccc3C2=O)c1 | 35.8 | > 100 | 44.9 | 99.4 | 32.6 | 59.6 | 48 | 37 | 55 | 79.8 | 78.7 | 29.6 | 34.4 | 30.8 | 27.5 | 47.7 | 48.5 | 31.6 | 40.3 | 
5 | COc1cc(-c2cc(=O)c3c(O)c(OC)c(OC)c(OC)c3o2)ccc1O |  |  | 43.1 | 77.3 |  | 37.2 |  |  |  | > 100 | > 100 | > 100 | 35.9 | 46.1 | 34.4 |  | > 100 | > 100 | > 100 | 
6 | O=c1ssc(Cl)c1Nc1c(Cl)ssc1=O | 31.5 | 32.3 | 39.6 | 42.4 | > 100 | 34.2 | 41.1 | 37.7 |  | 38.8 | 39.4 | 51.8 | 59.3 | 37.6 | > 55 | 35.8 | 36.8 | 37.3 | 15 | 29.8
7 | O=C1CCCC/C1=C1\C(=O)Nc2cc(F)ccc21 | > 100 |  | > 100 | > 100 |  | > 100 |  |  |  | > 100 |  | > 100 | > 100 | > 100 | > 100 | > 100 | > 100 | > 100 |  | 
8 | CC(O)C(N=Cc1nc(-c2ccccc2)oc1O)C(=O)O (configuration not stated) | > 100 |  |  | > 100 |  | > 100 |  |  |  | > 100 | > 100 | > 100 | > 100 | > 100 | > 100 | > 100 | > 100 | > 100 |  | 
9 | CCOC(=O)C1=C(C)OC(=O)[C@@]2(OC)C=C(Cl)[C@@]12C | > 100 | > 100 | > 100 | > 100 | > 100 | > 100 | > 100 | > 100 | > 100 | > 100 | > 100 | > 100 | > 100 |  | > 100 | > 100 | > 100 | > 100 | > 100 | 
10 | Cc1ccc(C[P+]2(c3ccccc3)CCCCC2)cc1 | 30.2 |  | > 100 | > 100 |  | > 100 |  |  |  | > 100 |  |  | > 100 | 80.6 | 66.2 | > 100 | 42.4 | > 100 | 90.9 | 
11 | NCCCCN(CCCN)C(=O)c1ccccc1 | > 100 | > 100 | > 100 | > 100 | > 100 | > 100 | > 100 | > 100 |  | > 100 | > 100 | > 100 | > 100 | > 100 | > 100 | > 100 | > 100 | > 100 |  | > 100
12 | Cc1c(-c2nnc(-c3ccc(Cl)cc3)o2)c(=O)n(-c2ccccc2)n1C | > 100 |  | > 100 | > 100 |  | > 100 |  |  |  | > 100 | > 100 | > 100 | 90.1 | > 100 | > 100 | > 100 | > 100 |  | > 100 | 
13 | CCOC(=O)c1cc2c(nc1N)-c1ncccc1CC2 | 69.2 |  | > 100 | > 100 |  | > 100 |  |  |  | > 100 | > 100 | > 100 | > 100 | > 100 | > 100 | > 100 | > 100 | > 100 | 57 | 
14 | O=C(O)Cc1cccc2c1Oc1ccccc1S2 | > 100 |  | > 100 | > 100 |  | > 100 |  |  |  | > 100 | > 100 | > 100 | > 100 | > 100 | > 100 | > 100 | > 100 |  |  | 
15 | O=C(c1ccc2ccccc2c1)N(Cc1cccnc1)C(=S)N(Cc1cccnc1)C(=O)c1ccc2ccccc2c1 | 75.1 | 69.5 | > 100 | 55.2 | > 100 |  | 44.1 | > 100 |  | 63.7 | 42.7 | 78.5 | > 100 | 75.7 | > 100 | 45.3 | 38.6 | > 100 | > 100 | 65.8
16 | CCOC(=O)N(c1ccccc1)c1cc(=O)n2ccccc2n1 | > 100 | > 100 | > 100 | > 100 |  | > 100 | > 100 | > 100 |  | > 100 | > 100 | > 100 | > 100 |  | > 100 | > 100 | > 100 | > 100 | > 100 | > 100
17 | N#C/C(=C\c1ccc(O)c(O)c1)C(=O)NC1CCC(CC2CCC(NC(=O)/C(C#N)=C/c3ccc(O)c(O)c3)CC2)CC1 (configuration not stated) | 2.51 |  | 32.7 | 4.06 |  |  |  |  |  | 3.89 | 3.96 | 5.46 | 2.67 | 3.89 | 3.07 | 40.6 | 4.5 | 4.09 | 3.36 | 
18 | CCCCCC[C@H]1CC(=O)C2CCCC[C@@]23CC[C@H](CCl)N13 (some centres not stated) (tested in a mixture with another compound) |  | > 100 | > 100 | > 100 | 60.4 | > 100 | > 100 | > 100 |  | > 100 | > 100 | > 100 | > 100 | > 100 | > 100 | > 100 | > 100 | > 100 |  | 
19 | CC1(C)OC(C[C@]2(C#N)C[C@H](CCl)OC(C)(C)O2)C[C@@H](C[C@]2(C#N)C[C@H](CCl)OC(C)(C)O2)O1 (some centres not stated) | > 100 |  | > 100 | > 100 |  | > 100 |  |  |  | > 100 | > 100 | > 100 | > 100 | > 100 | > 100 | > 100 | > 100 | > 100 | > 100 | 
20 | COc1ccc2c3c(n(Cc4ccccc4)c(=O)c2c1)-c1cc(OC)c(OC)cc1C3C (configuration not stated) | > 100 |  | > 100 | > 70 |  | > 100 |  |  |  | > 100 | > 100 | > 63.6 | 24.4 | 46 | 69.9 | 47.7 | 35.8 | > 100 | > 100 | 
21 | CCSC1(SCC)CC(Cc2ccc(OC)cc2)N(C=NC(C)(C)C)C1 (configuration not stated) | 74.6 |  | > 100 | > 100 |  | > 100 |  |  |  | 43.3 | > 100 | > 100 | > 100 | > 100 | 67 | > 100 | 62.7 | > 100 | 34.2 | 
22 | O=c1[nH]c(=O)n(C2OC(CO)C(O)C2O)c2ccsc12 (configuration not stated) | > 100 | > 100 | > 100 | > 100 | > 100 | > 100 | > 100 | > 100 | > 100 | > 100 | > 100 | > 100 | > 100 | > 100 |  | > 100 | > 100 | > 100 | > 100 | 
23 | Nc1ccc(N=Nc2ccc(-c3ccc(O)cc3)cc2)c2ccc(S(=O)(=O)O)cc12 | > 100 | > 100 | > 100 | > 100 | > 100 | > 100 | > 100 | > 100 |  | > 100 | > 100 | > 100 | > 100 | > 100 | > 100 | > 100 | > 100 | > 100 | > 100 | > 100
